Assay results from paper PMC12209991 (Clinical Pharmacology in Drug Development, 2025).
Like-named read-outs stand apart in the source and are kept apart here.

Experiments:
[1] = Multiple ascending dose (MAD) pharmacokinetics in healthy volunteers, BID for 14 days; format: in vivo, human; conditions: for AUC / Cmax / Tmax / half-life: human, plasma, oral; for Tmax: read-out: Tmax, median [min-max]
Protocol: (§1) Analytes were separated by HPLC on a Waters Atlantis T3 analytical column using a gradient mobile phase (mobile phase A: 10% acetonitrile, 90% water, 10 mM ammonium acetate, 0.3% formic acid; mobile phase B: 90% acetonitrile, 10% water, 10 mM ammonium acetate, 0.3% formic acid) run at 0.4 mL/min with initial mobile phase B concentration of 30%.

CYP3A4 = CYP3A4 (Homo sapiens, UniProt P08684); assay: In vitro metabolism; format: in vitro ADME; conditions: unpublished data
Chain of CYP3A4 (P08684 whole entry): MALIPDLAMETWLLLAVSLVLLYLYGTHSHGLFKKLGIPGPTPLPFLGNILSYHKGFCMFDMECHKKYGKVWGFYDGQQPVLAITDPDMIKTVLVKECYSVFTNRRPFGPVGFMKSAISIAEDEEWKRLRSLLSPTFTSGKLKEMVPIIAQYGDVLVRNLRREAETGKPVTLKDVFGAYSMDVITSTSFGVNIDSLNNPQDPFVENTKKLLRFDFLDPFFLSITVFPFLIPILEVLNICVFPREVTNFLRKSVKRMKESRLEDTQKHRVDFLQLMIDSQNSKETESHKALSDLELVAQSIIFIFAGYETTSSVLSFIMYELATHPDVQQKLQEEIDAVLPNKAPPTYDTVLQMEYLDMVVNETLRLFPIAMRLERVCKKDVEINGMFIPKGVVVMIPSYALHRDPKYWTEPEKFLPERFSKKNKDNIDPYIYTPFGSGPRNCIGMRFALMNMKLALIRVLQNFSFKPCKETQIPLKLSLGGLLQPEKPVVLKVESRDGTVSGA

[2] = Single ascending dose (SAD) pharmacokinetics in healthy volunteers; format: in vivo, human; conditions: for AUC(0-inf) / Cmax / Tmax: human, plasma, po; for Tmax: read-out: Tmax, median [min-max]
Protocol: as §1

time to steady-state ([1]; BID dosing): ≤ 3 days | AUC ([1]; 150 mg, 150 mg BID, Day 1, plasma, read-out: AUC12, geometric mean (Geo CV%)): 3470 ng·h/mL | AUC ([1]; 150 mg, 150 mg BID, Day 1, plasma, read-out: AUC12, mean (SD)): 3610 ng·h/mL | Cmax ([1]; 150 mg, 150 mg BID, Day 1, plasma, read-out: Cmax, geometric mean (Geo CV%)): 597 ng/mL | Cmax ([1]; 150 mg, 150 mg BID, Day 1, plasma, read-out: Cmax, mean (SD)): 623 ng/mL | Tmax ([1]; 150 mg, 150 mg BID, Day 1, plasma): 2.5 h | half-life ([1]; 150 mg, 150 mg BID, Day 1, plasma, read-out: t1/2, geometric mean (Geo CV%) (converted)): 4.13 h | half-life ([1]; 150 mg, 150 mg BID, Day 1, plasma, read-out: t1/2, mean (SD) (converted)): 4.52 h | AUC ([1]; 150 mg, 150 mg BID, Day 14, plasma, read-out: AUC12, geometric mean (Geo CV%)): 5570 ng·h/mL | AUC ([1]; 150 mg, 150 mg BID, Day 14, plasma, read-out: AUC12, mean (SD)): 5660 ng·h/mL | Cmax ([1]; 150 mg, 150 mg BID, Day 14, plasma, read-out: Cmax, geometric mean (Geo CV%)): 846 ng/mL | Cmax ([1]; 150 mg, 150 mg BID, Day 14, plasma, read-out: Cmax, mean (SD)): 861 ng/mL | Tmax ([1]; 150 mg, 150 mg BID, Day 14, plasma): 2.5 h | AUC ([1]; 300 mg, 300 mg BID, Day 1, plasma, read-out: AUC12, geometric mean (Geo CV%)): 5540 ng·h/mL | AUC ([1]; 300 mg, 300 mg BID, Day 1, plasma, read-out: AUC12, mean (SD)): 5590 ng·h/mL | Cmax ([1]; 300 mg, 300 mg BID, Day 1, plasma, read-out: Cmax, geometric mean (Geo CV%)): 907 ng/mL | Cmax ([1]; 300 mg, 300 mg BID, Day 1, plasma, read-out: Cmax, mean (SD)): 925 ng/mL | Tmax ([1]; 300 mg, 300 mg BID, Day 1, plasma): 2.5 h | half-life ([1]; 300 mg, 300 mg BID, Day 1, plasma, read-out: t1/2, geometric mean (Geo CV%) (converted)): 4.15 h | half-life ([1]; 300 mg, 300 mg BID, Day 1, plasma, read-out: t1/2, mean (SD) (converted)): 4.19 h | AUC ([1]; 300 mg, 300 mg BID, Day 14, plasma, read-out: AUC12, geometric mean (Geo CV%)): 9550 ng·h/mL | AUC ([1]; 300 mg, 300 mg BID, Day 14, plasma, read-out: AUC12, mean (SD)): 9860 ng·h/mL | Cmax ([1]; 300 mg, 300 mg BID, Day 14, plasma, read-out: Cmax, geometric mean (Geo CV%)): 1420 ng/mL | Cmax ([1]; 300 mg, 300 mg BID, Day 14, plasma, read-out: Cmax, mean (SD)): 1470 ng/mL | Tmax ([1]; 300 mg, 300 mg BID, Day 14, plasma): 2 h | AUC ([1]; 500 mg, 500 mg BID, Day 1, plasma, read-out: AUC12, geometric mean (Geo CV%)): 8040 ng·h/mL | AUC ([1]; 500 mg, 500 mg BID, Day 1, plasma, read-out: AUC12, mean (SD)): 8340 ng·h/mL | Cmax ([1]; 500 mg, 500 mg BID, Day 1, plasma, read-out: Cmax, geometric mean (Geo CV%)): 1270 ng/mL | Cmax ([1]; 500 mg, 500 mg BID, Day 1, plasma, read-out: Cmax, mean (SD)): 1320 ng/mL | Tmax ([1]; 500 mg, 500 mg BID, Day 1, plasma): 2.52 h | half-life ([1]; 500 mg, 500 mg BID, Day 1, plasma, read-out: t1/2, geometric mean (Geo CV%) (converted)): 4.38 h | half-life ([1]; 500 mg, 500 mg BID, Day 1, plasma, read-out: t1/2, mean (SD) (converted)): 4.39 h | AUC ([1]; 500 mg, 500 mg BID, Day 14, plasma, read-out: AUC12, geometric mean (Geo CV%)): 12400 ng·h/mL | AUC ([1]; 500 mg, 500 mg BID, Day 14, plasma, read-out: AUC12, mean (SD)): 12600 ng·h/mL | Cmax ([1]; 500 mg, 500 mg BID, Day 14, plasma, read-out: Cmax, geometric mean (Geo CV%)): 1830 ng/mL | Cmax ([1]; 500 mg, 500 mg BID, Day 14, plasma, read-out: Cmax, mean (SD)): 1880 ng/mL | Tmax ([1]; 500 mg, 500 mg BID, Day 14, plasma): 1.5 h | RBN-3143 dose excreted in urine unchanged ([2]; SAD and MAD cohorts, pooled urine): Approximately 16% | AUC(0-inf) ([2]; 25 mg, single oral dose 25 mg, read-out: AUCinf, geometric mean (Geo CV%)): 734 ng·h/mL | AUC(0-inf) ([2]; 25 mg, single oral dose 25 mg, read-out: AUCinf, mean (SD)): 752 ng·h/mL | Cmax ([2]; 25 mg, single oral dose 25 mg, read-out: Cmax, geometric mean (Geo CV%)): 134 ng/mL | Cmax ([2]; 25 mg, single oral dose 25 mg, read-out: Cmax, mean (SD)): 138 ng/mL | Tmax ([2]; 25 mg, single oral dose 25 mg): 2 h | AUC(0-inf) ([2]; 50 mg, single oral dose 50 mg, read-out: AUCinf, geometric mean (Geo CV%)): 1540 ng·h/mL | AUC(0-inf) ([2]; 50 mg, single oral dose 50 mg, read-out: AUCinf, mean (SD)): 1560 ng·h/mL | Cmax ([2]; 50 mg, single oral dose 50 mg, read-out: Cmax, geometric mean (Geo CV%)): 259 ng/mL | Cmax ([2]; 50 mg, single oral dose 50 mg, read-out: Cmax, mean (SD)): 269 ng/mL | Tmax ([2]; 50 mg, single oral dose 50 mg): 2 h | AUC(0-inf) ([2]; 100 mg, single oral dose 100 mg, read-out: AUCinf, geometric mean (Geo CV%)): 3540 ng·h/mL | AUC(0-inf) ([2]; 100 mg, single oral dose 100 mg, read-out: AUCinf, mean (SD)): 3610 ng·h/mL | Cmax ([2]; 100 mg, single oral dose 100 mg, read-out: Cmax, geometric mean (Geo CV%)): 544 ng/mL | Cmax ([2]; 100 mg, single oral dose 100 mg, read-out: Cmax, mean (SD)): 556 ng/mL | Tmax ([2]; 100 mg, single oral dose 100 mg): 1.75 h | AUC(0-inf) ([2]; 150 mg, single oral dose 150 mg, read-out: AUCinf, geometric mean (Geo CV%)): 5000 ng·h/mL | AUC(0-inf) ([2]; 150 mg, single oral dose 150 mg, read-out: AUCinf, mean (SD)): 5050 ng·h/mL | Cmax ([2]; 150 mg, single oral dose 150 mg, read-out: Cmax, geometric mean (Geo CV%)): 653 ng/mL
SMILES: CC(=O)N1CCC(COc2cc(F)c3c(=O)[nH]c(CSC4CCOCC4)nc3c2)CC1 [RBN‐3143]
metabolizing enzyme (CYP3A4): predominantly metabolized by cytochrome P4503A4 (CYP3A4)
